Data published in patent publication US20160158258A1, “PREVENTION AND TREATMENT OF INFLAMMATORY CONDITIONS” (GLYCOREGIMMUNE, INC., priority 2014, published 2016).

Assays:
[1] = system: liver damage caused by alcohol consumption; settings: description, no example; cited from earlier work
type I NKT cell = settings: description, no example; also in the absence of antigen-presenting cells; cited from earlier work
[2] = system: conventional MHC-restricted CD4+ T cells; settings: description, no example; cited from earlier work
[3] = system: hepatic ischemia and reperfusion injury; settings: cited from earlier work
[4] = system: chronic experimental autoimmune encephalomyelitis (EAE); test: EAE, oral sulfatide; assay type: in vivo, B6 mice; settings: oral 200 micrograms for 7 days, starting one day before disease induction
Source text: However as shown in FIG. 6 oral treatment with sulfatide though inhibits disease initially when given orally but not very efficient. Without being limited by any theory, it is contemplated that sulfatide is not very stable in the gut, which is consistent with the observed low efficiency. With reference to FIG. 6, groups of B6 mice were orally treated with sulfatide (200 micrograms in 200 microliters in PBS) for 7 days, starting one day before the disease induction. Clinical paralysis was monitored daily and scored from 1 to 5. […] Without being limited by any theory, the observed similarity of both groups in consistent with instability of sulfatide in the gut.

[5] = system: type I NKT cells; sulfatide/CD1d-tetramer+ cells; settings: after administration in vivo; cited from earlier work
[6] = system: chronic and relapsing experimental autoimmune encephalomyelitis (EAE); test: chronic and relapsing EAE; assay type: in vivo, SJL mice
Procedure: Groups of SJL mice were orally gavaged with miltefosine (1 mg in 200 microliters of 10% DMSO/PBS) or control (DMSO/PBS), twice a week as indicated by arrows. Clinical severity of disease was monitored daily as paralysis in both groups of mice from scale 1 to 5 and shown.

ConA-induced hepatitis [7] = settings: description, no example; cited from earlier work
type I NKT cells = test: alpha-GalCer stimulation of splenocytes from orally treated mice; assay type: in vivo, B6 mice; settings: 1 mg oral gavage daily for 7 days; splenocytes cultured 90 hrs; 10 ng/ml alpha-GalCer
Procedure: Naïve B6 mice were treated every day for 7 days with DMSO (Control) or Miltefosine 1 mg (dissolved in DMSO and diluted into PBS), using oral gavage. Splenocytes were cultured in vitro for 90 hrs in the presence or absence of alpha-GalCer. Stimulation (as stimulation Index) and expansion of type I NKT cells (as FACS staining with alpha-GalCer/CD1d^−tetramer^+ cells) at 10 ng/ml of alpha-GalCer concentration is shown in both FIG. 2A and FIG. 2B.

[8] = system: alcoholic liver diseases (ALD); test: alcoholic liver disease, chronic plus binge EtOh feeding; assay type: in vivo, C57BL/6 mice
Source text: Groups of C57BL/6 mice were fed liquid alcohol (EtOh) diet or isocaloric control (control) diet for 10 day either containing miltefosine (˜500 micrograms per day) or DMSO/PBS. On day 11, 9 hr after the binge (chronic plus binge feeding), accumulation and activation of type I NKT cells (alpha-GalCer/CD1d^−tetramer^+ cells) or neutrophils (Ly^−6 G^+ CD11b^+) were examined in liver. As shown in FIG. 4A and FIG. 4B, in comparison to the control diet group, type I NKT cells accumulate into liver in mice fed liquid chronic plus binge EtOh diet. Also as shown in FIG. 4C and FIG. 4D, type I NKT cells become activated (as examined by the expression of CD69 cell surface expression in alpha-GalCer/CD1d-tetrame^+ cells) accompanied by accumulation of neutrophils (Ly^−6 G^+ CD11b^+ cells) into liver. Accumulation of activated type I NKT cells and neutrophils leads to inflammatory cascade resulting in heaptocyte injury during ALD.

[9] = system: type II NKT cell hybridoma, Hy19.3; test: plate-bound CD1d assay: IL-2 from type II NKT cell hybridoma; assay type: cell-based; settings: CD1d coated plates incubated with lipid 6 hr; 50,000 cells/well; IL-2 measured 16 hr later
Procedure: (§1) The CD1d protein coated 96-well plates were incubated with the indicated lipids for 6 hr, washed and a type II NKT cell Hy 19.3 was added (50,000 cells/well) and IL-2 measured 16 hr later in the supernatant. LSF, lysosulftatide; LPC, lysophosphatidylcholine.

CD1d = target: T1, CD1d (Mus musculus, UniProt P11609); test: plate-bound CD1d assay: binding to CD1d; settings: concluded from plate-bound CD1d assay
T1 sequence (P11609 19-297 limits assumed): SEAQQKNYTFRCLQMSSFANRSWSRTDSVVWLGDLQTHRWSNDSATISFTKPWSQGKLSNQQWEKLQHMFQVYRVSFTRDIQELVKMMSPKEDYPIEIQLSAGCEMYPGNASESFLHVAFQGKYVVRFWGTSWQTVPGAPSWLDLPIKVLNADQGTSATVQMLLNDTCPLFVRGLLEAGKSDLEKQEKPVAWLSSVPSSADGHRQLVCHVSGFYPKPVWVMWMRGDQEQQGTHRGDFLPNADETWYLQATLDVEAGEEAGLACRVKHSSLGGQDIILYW
T1 sequence (P01887 21-119 partner): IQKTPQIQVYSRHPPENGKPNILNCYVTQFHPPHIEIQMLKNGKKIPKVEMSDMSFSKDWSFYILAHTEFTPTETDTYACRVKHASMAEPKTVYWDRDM
Procedure: as §1

ConA-induced hepatitis [10] = test: ConA-induced hepatitis; assay type: in vivo, BL/6 mice
Procedure: Groups of BL/6 mice were either administered with DMSO/PBS or miltefosine 12 hr before ConA administration and liver injury was determined by H&E staining of liver sections and liver enzymes, such as ALT in serum examined 24 hr later (FIG. 3A and FIG. 3B). Data shown are representative of 2 independent experiments.

liver mononuclear cells = test: flow cytometry of liver mononuclear cells after oral treatment; assay type: in vivo, SJL/J mice; settings: 1 mg orally before and during disease; day 59
Procedure: Groups of female SJL/J mice were administered orally with 1 mg of miltefosine as shown in the FIG. 2, before and during the course of disease. Mice were sacrificed on day 59.

[11] = ~500 micrograms per day in EtOh diet 10 day, day 11, 9 hr after binge

Compound: CC1=C(/C=C/C(C)=C/C=C/C(C)=C/C(=O)O)C(C)(C)CCC1 [ATRA, all trans retinoic acid]
- liver damage following excess alcohol consumption [1]: significantly inhibits liver damage
- type I NKT cell effector function, including cytokine secretion (type I NKT cell): inhibits type I NKT cell effector function
- activity of conventional MHC-restricted CD4+ T cells that recognize protein antigens [2]: does not directly inhibit

Compound: 3′-sulfogalactosyl ceramide [sulfatide]
- secretion of IFN-gamma by hepatic type I NKT cells ([3]; early phase of ischemia and reperfusion injury, vs untreated animals): significantly decreased
- liver injury following ischemia/reperfusion ([3]; mice treated with sulfatide): significantly reduced
- duration of initial protection from clinical paralysis [4]: 4 to 5 days
- liver damage following excess alcohol consumption [1]: almost complete protection from liver damage
- in vitro proliferation of type I NKT cells in response to alpha-GalCer [5]: suppress in vitro proliferation of type I NKT cells
- percentage of sulfatide/CD1d-tetramer+ cells with intracytoplasmic IFN-gamma staining [5]: increase the percentage of sulfatide/CD1d-tetramer+ cells with intracytoplasmic IFN-gamma staining
- chronic and relapsing EAE ([6]; SJL/J mice, route not stated): significant inhibition
- protection against ConA-induced hepatitis (hepatocellular necrosis, serum ALT and AST) (ConA-induced hepatitis [7]): can protect against Concanavalin A (ConA)-induced hepatitis

Compound: CCCCCCCCCCCCCCCCOP(=O)([O-])OCC[N+](C)(C)C [miltefosine]
- type I NKT cells proliferation and expansion in the presence of alpha-GalCer (type I NKT cells): significant inhibition
- liver injury ([8]; ~500 micrograms per day in EtOh diet): protection from liver injury
- accumulation of type I NKT cells in liver [8, 11]: inhibited accumulation of type I NKT cells
- levels of activated (CD69+) type I NKT cells in liver [8, 11]: reduced levels of activated (CD69^+) NKT cells
- levels of neutrophils (Ly-6G+ CD11b+) in liver [8, 11]: reduced levels of neutrophils
- stimulation of type II NKT cell hybridoma Hy19.3 (IL-2 in the supernatant) [9]: able to stimulate
- binding to CD1d molecules (CD1d): can bind to CD1d molecules
- serum levels of ALT (ConA-induced hepatitis [10]; given 12 hours before ConA, 24 hours later): reduced serum levels of ALT
- liver injury following Con A injection (ConA-induced hepatitis [10]; given 12 hr before ConA): significant inhibition of liver injury
- necrosis, H&E staining of liver sections (ConA-induced hepatitis [10]; given 12 hr before ConA): decreased necrosis
- clinical severity of disease (paralysis, scale 1 to 5) ([6]; oral gavage 1 mg twice a week): can be treated with miltefosine
- other CD4+ and CD8αβ+ T cells in liver, control vs. treated (liver mononuclear cells): not different
- regulatory CD8αα+ T cells in liver (liver mononuclear cells): significantly increased
